According to US20140249135A1, “PIM KINASE INHIBITORS AND METHODS OF THEIR USE” (NOVARTIS AG, priority 2007, published 2014):
“And” between values parts separate entries of the source, which are not always exact repeats. Equal entries are not always repeated.

How the values were obtained:
[1] = biological target: KDR kinase (Homo sapiens, UniProt P35968); assay: KDR AlphaScreen assay; conditions: KDR IC50 (μM)
[2] = biological target: Pim2 kinase (Homo sapiens, UniProt Q9P1W9); assay: Pim2 ATP depletion assay; format: biochemical; conditions: read-out: IC50 (μM) PIM2;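 further: Luciferase-based luminescent readout of ATP remaining after PIM2 phosphorylates a BAD peptide, final 5 nM enzyme, 4 µM ATP, 10 µM peptide, 2.5% DMSO, run to roughly half ATP consumption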
Pim2 kinase, sequence (Q9P1W9 whole entry): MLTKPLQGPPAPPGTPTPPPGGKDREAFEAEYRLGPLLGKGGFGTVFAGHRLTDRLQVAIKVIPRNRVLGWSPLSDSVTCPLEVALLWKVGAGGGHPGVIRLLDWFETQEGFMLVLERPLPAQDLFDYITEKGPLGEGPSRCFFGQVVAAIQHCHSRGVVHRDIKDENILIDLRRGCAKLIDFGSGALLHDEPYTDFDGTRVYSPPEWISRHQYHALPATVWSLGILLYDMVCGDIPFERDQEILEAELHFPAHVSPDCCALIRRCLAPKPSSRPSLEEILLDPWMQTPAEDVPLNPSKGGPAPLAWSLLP

[3] = biological target: Pim1 kinase (Homo sapiens, UniProt P11309); assay: Pim1 ATP depletion assay; format: biochemical; conditions: Pim1 ATP depletion assay; read-out: IC50 (μM) PIM1;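 further: Luciferase-luciferin luminescence readout of residual ATP after PIM1 transfers phosphate to a peptide substrate, 40 µM ATP added, reaction run to roughly half ATP consumption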
Pim1 kinase, sequence (P11309 whole entry): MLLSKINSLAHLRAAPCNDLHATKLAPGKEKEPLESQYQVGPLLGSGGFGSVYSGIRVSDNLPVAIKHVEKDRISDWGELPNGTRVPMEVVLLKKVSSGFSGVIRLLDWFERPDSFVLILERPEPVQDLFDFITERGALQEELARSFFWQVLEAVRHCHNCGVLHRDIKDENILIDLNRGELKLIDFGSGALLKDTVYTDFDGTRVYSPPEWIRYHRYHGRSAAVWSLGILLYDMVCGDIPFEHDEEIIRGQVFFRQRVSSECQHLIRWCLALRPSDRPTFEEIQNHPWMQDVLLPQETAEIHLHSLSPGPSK

[4] = biological target: T1, human full length PKCE enzyme (Homo sapiens, UniProt Q02156); assay: In vitro PKCE assay; format: biochemical; conditions: 10 nM enzyme, 40 uM peptide substrate, 20 uM ATP, KinaseGlo Plus readout; read-out: PKCε IC50
T1 construct: human full length PKCE enzyme purchased from InVitrogen; purchased InVitrogen
T1 sequence (Q02156 1-737): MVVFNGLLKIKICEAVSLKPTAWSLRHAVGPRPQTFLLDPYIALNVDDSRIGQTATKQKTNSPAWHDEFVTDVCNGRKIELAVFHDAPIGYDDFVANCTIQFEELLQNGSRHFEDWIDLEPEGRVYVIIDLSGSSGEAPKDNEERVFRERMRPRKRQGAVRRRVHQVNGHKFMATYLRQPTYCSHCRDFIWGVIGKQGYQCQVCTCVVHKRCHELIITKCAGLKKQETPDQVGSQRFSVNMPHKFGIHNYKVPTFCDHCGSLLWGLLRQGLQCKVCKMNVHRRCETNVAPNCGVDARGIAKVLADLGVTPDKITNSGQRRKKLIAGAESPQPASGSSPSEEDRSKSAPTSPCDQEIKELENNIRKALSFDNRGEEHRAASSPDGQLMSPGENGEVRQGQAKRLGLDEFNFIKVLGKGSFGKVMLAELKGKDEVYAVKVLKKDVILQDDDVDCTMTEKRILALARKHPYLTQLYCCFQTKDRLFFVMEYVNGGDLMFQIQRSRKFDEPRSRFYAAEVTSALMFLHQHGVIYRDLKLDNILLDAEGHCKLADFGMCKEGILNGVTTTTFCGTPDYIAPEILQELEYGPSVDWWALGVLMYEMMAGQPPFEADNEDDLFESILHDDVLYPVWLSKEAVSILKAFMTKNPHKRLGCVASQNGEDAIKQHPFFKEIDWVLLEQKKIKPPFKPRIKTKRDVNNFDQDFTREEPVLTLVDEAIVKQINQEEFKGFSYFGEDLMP

[5] = tested on: PC3 cells; assay: Cell proliferation assay (CellTiter-Glo), PC3; format: cell-based; conditions: Homo sapiens, PC-3
Procedure: HEL 92.1.7 cells (ATTC No. TIB-180, an erythroleukemia line derived from malignant peripheral blood), MV4-11 cells (ATCC No. CRL-9591, a human acute monocytic leukemia line) and PC3 cells (ATCC No. CRL-1435, a human prostatic adenocarcinoma line) were cultured in RPMI1640 supplemented with 10% FBS, sodium pyruvate and antibiotics. Cells were plated in the same medium at a density of 1000 cells per well into 96 well tissue culture plates, with outside wells vacant, on the day of assay.
Test compounds supplied in DMSO were diluted into DMSO at 500 times the desired final concentrations before dilution into culture media to 2 times final concentrations. Equal volumes of 2× compounds were added to the cells in 96 well plates and incubated at 37° C. for 3 days.
After 3 days plates were equilibrated to room temperature and equal volume of CellTiter-Glow Reagent (Promega) was added to the culture wells. The plates were agitated briefly and luminescent signal was measured with luminometer. The percent inhibition of the signal seen in cells treated with DMSO alone vs. cells treated with control compound was calculated and used to determine EC50 values (i.e., the concentration of a test compound that is required to obtain 50% of the maximum effect in the cells) for tested compounds, as shown in Example 763.

[6] = biological target: Pim3 kinase (Homo sapiens, UniProt Q86V86); assay: Pim3 ATP depletion assay; format: biochemical; conditions: read-out: IC50 (μM) PIM3

KDR kinase, sequence (P35968 20-1356): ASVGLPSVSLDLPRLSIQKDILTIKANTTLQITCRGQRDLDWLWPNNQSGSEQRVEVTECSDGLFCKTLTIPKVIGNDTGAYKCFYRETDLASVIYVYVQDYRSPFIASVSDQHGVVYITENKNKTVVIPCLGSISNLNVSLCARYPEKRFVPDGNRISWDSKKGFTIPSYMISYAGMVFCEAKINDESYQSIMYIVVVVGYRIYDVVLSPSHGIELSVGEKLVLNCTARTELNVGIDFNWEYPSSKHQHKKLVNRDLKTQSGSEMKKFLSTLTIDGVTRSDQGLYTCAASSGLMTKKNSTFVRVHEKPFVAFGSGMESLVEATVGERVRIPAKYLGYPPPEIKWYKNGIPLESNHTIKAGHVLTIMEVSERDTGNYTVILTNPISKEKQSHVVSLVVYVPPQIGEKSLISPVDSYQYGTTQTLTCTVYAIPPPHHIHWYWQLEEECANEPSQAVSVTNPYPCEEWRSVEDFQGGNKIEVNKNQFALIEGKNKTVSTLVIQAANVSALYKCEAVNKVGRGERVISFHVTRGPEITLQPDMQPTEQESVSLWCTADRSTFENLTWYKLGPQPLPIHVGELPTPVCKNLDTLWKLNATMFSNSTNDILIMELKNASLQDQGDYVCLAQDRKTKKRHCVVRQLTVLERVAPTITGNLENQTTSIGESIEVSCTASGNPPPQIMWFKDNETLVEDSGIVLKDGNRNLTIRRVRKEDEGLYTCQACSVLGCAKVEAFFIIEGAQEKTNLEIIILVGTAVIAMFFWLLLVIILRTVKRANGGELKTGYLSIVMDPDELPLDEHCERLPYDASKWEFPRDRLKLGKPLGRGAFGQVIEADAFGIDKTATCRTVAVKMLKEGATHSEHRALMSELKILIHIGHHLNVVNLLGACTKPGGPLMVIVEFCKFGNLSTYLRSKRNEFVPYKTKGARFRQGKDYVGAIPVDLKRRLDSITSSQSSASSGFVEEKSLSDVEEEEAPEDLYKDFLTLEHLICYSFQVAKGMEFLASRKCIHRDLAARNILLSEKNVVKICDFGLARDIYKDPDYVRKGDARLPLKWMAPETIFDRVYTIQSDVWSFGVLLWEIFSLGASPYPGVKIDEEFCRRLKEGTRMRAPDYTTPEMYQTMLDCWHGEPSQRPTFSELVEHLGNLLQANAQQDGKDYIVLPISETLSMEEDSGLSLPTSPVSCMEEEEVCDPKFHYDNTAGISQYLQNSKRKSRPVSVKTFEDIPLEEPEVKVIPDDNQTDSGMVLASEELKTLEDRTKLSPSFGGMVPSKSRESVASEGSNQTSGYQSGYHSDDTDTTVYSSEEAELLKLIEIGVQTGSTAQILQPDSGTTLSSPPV

IC50 [1]	IC50 [2]	IC50 [3]	IC50 [4]	EC50 [5]	IC50 [6]	Structure (SMILES)
> 25 µM	10 to 25 µM	< 1 µM	< 1 µM	> 10 µM	< 1 µM	COc1ccc(N2CCC(N)CC2)c(NC(=O)c2nccnc2N)c1 [Example 222, 3-amino-N-[2-(4-aminopiperidin-1-yl)-5-methoxyphenyl]pyrazine-2-carboxamide]
< 1 µM	1 to 10 µM	< 1 µM	< 1 µM	> 10 µM	< 1 µM	Nc1ncc(-c2ccccc2Oc2ccccc2)nc1C(=O)Nc1cnccc1N1CCC(N)CC1 [Example 365, 3-amino-6-(2-phenoxy-phenyl)-pyrazine-2-carboxylic acid (4-amino-3,4,5,6-tetra-hydro-2H-[1,4′]bipyridinyl-3′-yl)-amide]
10 to 25 µM	1 to 10 µM	< 1 µM	< 1 µM	1 to 5 µM	< 1 µM	Nc1nccnc1C(=O)Nc1cc(Cl)ccc1N1CCC(N)CC1 [Example 214, 3-amino-N-[2-(4-aminopiperidin-1-yl)-5-chlorophenyl]pyrazine-2-carboxamide]
1 to 10 µM	1 to 10 µM	< 1 µM	< 1 µM	1 to 5 µM	< 1 µM	Nc1ncc(-c2ccccc2)nc1C(=O)Nc1ccccc1N1CCNCC1 [Example 382, 3-amino-6-phenyl-pyrazine-2-carboxylic acid (2-piperazin-1-yl-phenyl)-amide]
1 to 10 µM	< 1 µM	< 1 µM	< 1 µM	< 1 µM	< 1 µM	Nc1ncc(Br)nc1C(=O)Nc1ccccc1N1CCC(N)CC1 [Example 205, 3-amino-N-[2-(4-aminopiperidin-1-yl)phenyl]-6-bromopyrazine-2-carboxamide]
1 to 10 µM	1 to 10 µM	< 1 µM	< 1 µM	1 to 5 µM	1 to 10 µM	Nc1ncc(-c2cccc3ccccc23)nc1C(=O)Nc1ccccc1N1CCNCC1 [Example 389, 3-amino-6-naphthalen-1-yl-pyrazine-2-carboxylic acid (2-piperazin-1-yl-phenyl)-amide]
< 1 µM	< 1 µM	< 1 µM	< 1 µM	1 to 5 µM	< 1 µM	Nc1ncc(-c2ccccc2)nc1C(=O)Nc1ccccc1N1CCCC(N)C1 (centres unmarked) [Example 372, 3-amino-6-phenyl-pyrazine-2-carboxylic acid [2-(3-amino-piperidin-1-yl)-phenyl]-amide]

Further lines, the molecule ahead of its results:

Structure (SMILES)	IC50 [1]	IC50 [2]	IC50 [3]	IC50 [4]	EC50 [5]	IC50 [6]
Cc1cnc(N)c(C(=O)Nc2ccccc2N2CCC(N)CC2)n1 [Example 378, 3-amino-N-[2-(4-amino-piperidin-1-yl)phenyl]-6-methylpyrazine-2-carboxamide]	> 25 µM	10 to 25 µM	< 1 µM	< 1 µM	1 to 5 µM	1 to 10 µM
Nc1ncc(-c2ccccc2)nc1C(=O)Nc1cnccc1N1CCNCC1 [Example 359, 3-amino-6-phenyl-pyrazine-2-carboxylic acid (4-piperazin-1-yl-pyridin-3-yl)-amide]	< 1 µM	< 1 µM	< 1 µM	< 1 µM	< 1 µM	< 1 µM
CN(C)C1CCN(c2ccncc2NC(=O)c2nccnc2N)CC1 [Example 126, 3-amino-N-{4-[4-(dimethyl-amino)piperidin-1-yl]pyridin-3-yl}pyrazine-2-carboxamide]	1 to 10 µM	1 to 10 µM	< 1 µM	< 1 µM	5 to 10 µM	< 1 µM
Nc1nccnc1C(=O)Nc1ccccc1N1CCC(N)CC1 [Example 203, 3-amino-N-[2-(4-aminopiperidin-1-yl)phenyl]pyrazine-2-carboxamide]	> 25 µM	1 to 10 µM	< 1 µM	< 1 µM	< 1 µM	< 1 µM
Cc1cnc(N)c(C(=O)Nc2ccccc2N2CCCC(N)C2)n1 (centres unmarked) [Example 376, 3-amino-6-methyl-pyrazine-2-carboxylic acid [2-(3-amino-piperidin-1-yl)-phenyl]-amide]	> 25 µM	< 1 µM	< 1 µM	< 1 µM	> 10 µM	< 1 µM
Nc1nccnc1C(=O)Nc1ccccc1N1CCCC(N)C1 (centres unmarked) [Example 195, 3-amino-N-[2-(3-aminopiperidin-1-yl)phenyl]pyrazine-2-carboxamide]	> 25 µM	< 1 µM	< 1 µM	< 1 µM	> 10 µM	< 1 µM
Nc1nccnc1C(=O)Nc1ccccc1N1CCC[C@H](N)C1 [Example 201, 3-amino-N-{2-[(3S)-3-amino-piperidin-1-yl]phenyl}pyrazine-2-carboxamide]	10 to 25 µM	< 1 µM	< 1 µM	< 1 µM	5 to 10 µM	< 1 µM
Cc1ccc(N2CCC(N)CC2)c(NC(=O)c2nccnc2N)c1 [Example 217, 3-amino-N-[2-(4-aminopiperidin-1-yl)-5-methylphenyl]pyrazine-2-carboxamide]	> 25 µM and 10 to 25 µM	> 25 µM	< 1 µM	10 to 25 µM and < 1 µM	5 to 10 µM	1 to 10 µM
Nc1nccnc1C(=O)Nc1ccccc1N1CCNCC1 [Example 202, 3-amino-N-(2-piperazin-1-ylphenyl)pyrazine-2-carbox-amide]	> 25 µM	> 25 µM	1 to 10 µM	< 1 µM	1 to 5 µM	1 to 10 µM
COc1ccc(-c2cnc(N)c(C(=O)Nc3cnccc3N3CCNCC3)n2)cc1 [Example 362, 3-amino-6-(4-methoxy-phenyl)-pyrazine-2-carboxylic acid (4-piperazin-1-yl-pyridin-3-yl)-amide]	< 1 µM	< 1 µM	< 1 µM	< 1 µM	< 1 µM	< 1 µM
Cc1ccc(NC(=O)c2nccnc2N)c(N2CCC(N)CC2)c1 [Example 228, 3-amino-N-[2-(4-aminopiperidin-1-yl)-4-methylphenyl]pyrazine-2-carboxamide]	10 to 25 µM	10 to 25 µM	< 1 µM	< 1 µM	5 to 10 µM	< 1 µM
Nc1ncc(-c2ccccc2F)nc1C(=O)Nc1cnccc1N1CCC(N)CC1 [Example 368, 3-amino-6-(2-fluoro-phenyl)-pyrazine-2-carboxylic acid (4-amino-3,4,5,6-tetrahydro-2H-[1,4′]bipyridinyl-3′-yl)-amide]	< 1 µM		< 1 µM	< 1 µM	< 1 µM	< 1 µM
COc1ccc(-c2cnc(N)c(C(=O)Nc3cnccc3N3CCCC(N)C3)n2)cc1 (centres unmarked) [Example 370, 3-amino-6-(4-methoxy-phenyl)-pyrazine-2-carboxylic acid (3-amino-3,4,5,6-tetra-hydro-2H-[1,4′]bipyridinyl-3′-yl)-amide]	< 1 µM	< 1 µM	< 1 µM	< 1 µM	5 to 10 µM	< 1 µM
